Measured values: patent publication US12473339B2, “Acylated glucagon analogues” (Zealand Pharma A/S, priority 2013, dated 2025)
*1 amine or outer side, *2 acyl side, *3 side chain or, on linkers, in order; H or OH if unused. Where a SMILES comes first, the peptide text is derived from it. Side-chain parts run from the residue outwards. [ ]: non-standard residue; d: D form. The star is where a group is joined. C18 diacid = O=C(O)CCCCCCCCCCCCCCCCC(=O)*; γGlu = O=C(O)[C@H](CCC(=O)[*:2])N[*:1]; Ac4c = NC1(C(=O)O)CCC1; AEEA = NCCOCCOCC(=O)O; Aib = CC(C)(N)C(=O)O

What was measured:
[1] = target: T1, human glucagon receptor (Glucagon-R) (Homo sapiens, UniProt P47871); assay: Glucagon receptor efficacy assay (cAMP AlphaScreen, CHO cells); assay type: cell-based; settings: cAMP formation, CHO cells expressing human Glucagon-R, 15 min; read-out: EC50 hGCGR CHO-K1
T1 construct: expressed in transfected cells
Text: (§1) The cDNA encoding either the human glucagon receptor (Glucagon-R) (primary accession number P47871) or the human glucagon-like peptide 1 receptor (GLP-1R) (primary accession number P43220) were synthesized and cloned into a mammalian expression vector containing a Zeocin resistance marker.
(§2) The mammalian expression vectors encoding the Glucagon-R or the GLP-1-R were transfected into Chinese hamster ovary (CHO) cells by the Attractene method. Stably expressing clones were obtained by Zeocin selection (250 μg/mL) upon limited dilution of cells resistant to the selection pressure. Glucagon-R and GLP-1-R cell clones expressing were picked, propagated and tested in the Glucagon-R and GLP-1-R efficacy assays as described below. One Glucagon-R expressing clone and one GLP-1-R expressing clone were chosen for compound profiling.
(§3) CHO cells expressing the human Glucagon-R, or human GLP-1-R were seeded 24 hours prior to the assay at 30,000 cells per well in 96-well microtiter plates in culture in 100 μl growth medium. On the day of analysis, growth medium was removed and the cells were washed once with 200 μl of assay buffer (Krebs-Ringer-buffer—KRBH). The buffer was removed and the cells were incubated for 15 min at room temperature in 10 μl KRBH (KRBH+10 mM HEPES, 5 mM NaHCO3, 0.1% (V/V) BSA) with 0.1 mM IBMX in deionized water containing increasing concentrations of test peptides. The reaction was stopped by the addition of lysis buffer (0.1% w/v BSA, 5 mM HEPES, 0.3% v/v Tween-20). After cell lysis for 10 min at room temperature, lysates were transferred to 384-well plates and 10 μl of acceptor/donorbead mixture as contained in the AlphaScreen™ cAMP Functional Assay Kit was added. After one hour of incubation at room temperature in the dark, the cAMP content was determined applying the AlphaScreen™ cAMP Functional Assay Kit from Perkin-Elmer according to manufacturer instructions. EC50 and relative efficacies compared to reference compounds (glucagon and GLP-1) were calculated applying computer aided curve fitting. The GLP-1/glucagon ratio is calculated as defined earlier.

[2] = target: T2, endogenous glucagon receptor (Rattus norvegicus, UniProt P30082); assay: Agonistic activity on endogenous glucagon receptor (glycogen synthesis rate in primary rat hepatocytes); assay type: cell-based; settings: inhibition of glycogen synthesis rate (14C-glucose incorporation), 3 hours
T2 construct: Agonistic activity of the test compounds on endogenous glucagon receptor; endogenous in cells; host or cells: primary rat hepatocytes
Protocol: Agonistic activity of the test compounds on endogenous glucagon receptor was determined by measuring their effect on rate of glycogen synthesis in primary rat hepatocytes. Upon activation of the glucagon receptor, an inhibition of the glycogen synthesis rate is expected. Rate of glycogen synthesis was determined by counting the amount of radioactively labeled glucose incorporated into the cellular glycogen stores in a defined period of time.
Primary rat hepatocytes were cultured at a density of 40,000 cells/well in a 24-well plate for 24 hours at 37° C. and 5% CO2.
Medium was discarded and the cells washed with PBS. 180 μL of KRBH-based buffer containing 0.1% BSA and glucose at a concentration of 22.5 mM was then added to the wells, followed by test compound and 40 μCi/ml D-[U14C] glucose (20 μL each). Incubation was continued for 3 hours.
At the end of the incubation period, the incubation buffer was aspirated and cells washed once with ice-cold PBS before lysis by incubation for 30 min at room temperature with 100 μL 1 mol/l NaOH.
Cell lysates were transferred to 96-well filter plates and glycogen precipitated by incubating the filter-plates for 120 min at 4° C. followed by washing the filter plates 4 times with ice-cold ethanol (70%). The resulting precipitates were filtered to dryness and the amount of incorporated ^14C-glucose determined by using a Topcount scintillation counter according to manufacturer's recommendations.
Wells with vehicle controls (0.1% (v/v) DMSO in KRBH buffer) were included as reference for non-inhibited glycogen synthesis (100% CTL). Wells without added D-[U^14C] glucose were included as controls for non-specific background signal (subtracted from all values). Endogenous glucagon peptide was used as a positive control.
All treatments were performed at least in duplicates.
Parameters calculated to describe both the potency as well as the agonistic activity of each test compound on the endogenous glucagon receptor are pEC50 and % CTL.
% CTL is determined by calculating the percentage of CPM/well in the presence of the test compound compared to the CPM/well of the vehicle control after subtracting the background CPM/well: [CPM/well(basal)−CPM/well(sample)]*100/[CPM/well(basal)−CPM/well(control)]
An activator of the glucagon receptor will result in an inhibition of the glycogen synthesis rate and will give % CTL values between 0% CTL (complete inhibition) and 100% CTL (no observable inhibition).
The resulting activity curves were plotted as absolute counts (unit: cpm/sample) over log (test compound concentration) and analyzed using the curve fitting program XLfit.
pEC50 (negative logarithmic value of EC50) reflects the potency of the test compound. […]

[3] = target: T3, human glucagon-like peptide 1 receptor (GLP-1R) (Homo sapiens, UniProt P43220); assay: GLP-1 receptor efficacy assay (cAMP AlphaScreen, CHO cells); assay type: cell-based; settings: EC50 [GLP-1R] / EC50 [Glucagon-R], human receptors in CHO-K1
T3 construct: expressed in transfected cells
Text: as §1, §2, §3

[4] = Pharmacokinetic parameters after intravenous administration to rats; settings: male, Han/Wistar, rat, in vivo, 20 nmol/kg
Protocol: Pharmacokinetic parameters of the test compounds were determined after intravenous administration to Han/Wistar rats. The acylated GLP-1 analogue semaglutide was also tested for comparison purposes. Male Wistar rats were obtained from Charles River (Germany) weighing approximately 180 to 210 g at time of arrival at the test facility. Rats were caged in European standard rat cages type IV with light cycle of 12-hour dark and 12-hour light. During the study rats were housed in standard rat cages type III. Both diet Altromin 1324 (Altromin, Germany) and water was administered ad libitum during the whole experimental period. The animals were housed in the test facility for at least 4 days in order to assure proper acclimatization. The compounds were first dissolved in 0.1% aqueous ammonia to a nominal concentration of 2 mg/ml, and then diluted to the desired dosing strength (10 μM) in sterile PBS containing 25 mM phosphate buffer, pH 7.4. Intravenous injections corresponding to 20 nmol/kg were given via a lateral tail vein. Blood samples (200 μl) were collected from the periorbital plexus at time points 0.08, 0.25, 0.5, 1, 2, 4, 8, 24, 32 and 48 h post dosing into K3EDTA tubes and centrifuged for 5 minutes at 4° C. within 20 minutes of sampling. […] Individual plasma concentration-time profiles were analysed by a non-compartmental approach using ToxKin™ version 3.2 (Unilog IT Services), and the resulting pharmacokinetic parameters were determined.

T3 sequence (P43220 24-463): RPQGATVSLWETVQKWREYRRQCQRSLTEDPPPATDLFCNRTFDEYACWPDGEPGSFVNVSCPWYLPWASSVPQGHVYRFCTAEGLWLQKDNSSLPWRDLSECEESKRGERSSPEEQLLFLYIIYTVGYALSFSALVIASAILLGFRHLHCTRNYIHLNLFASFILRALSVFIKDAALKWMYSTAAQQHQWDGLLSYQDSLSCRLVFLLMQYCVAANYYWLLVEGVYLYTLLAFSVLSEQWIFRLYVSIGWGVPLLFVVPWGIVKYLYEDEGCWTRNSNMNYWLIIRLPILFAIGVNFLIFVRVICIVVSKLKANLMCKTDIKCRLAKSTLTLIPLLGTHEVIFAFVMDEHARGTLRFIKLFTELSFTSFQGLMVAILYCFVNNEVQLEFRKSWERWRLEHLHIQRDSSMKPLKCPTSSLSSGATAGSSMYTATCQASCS
T2 sequence (P30082 27-485): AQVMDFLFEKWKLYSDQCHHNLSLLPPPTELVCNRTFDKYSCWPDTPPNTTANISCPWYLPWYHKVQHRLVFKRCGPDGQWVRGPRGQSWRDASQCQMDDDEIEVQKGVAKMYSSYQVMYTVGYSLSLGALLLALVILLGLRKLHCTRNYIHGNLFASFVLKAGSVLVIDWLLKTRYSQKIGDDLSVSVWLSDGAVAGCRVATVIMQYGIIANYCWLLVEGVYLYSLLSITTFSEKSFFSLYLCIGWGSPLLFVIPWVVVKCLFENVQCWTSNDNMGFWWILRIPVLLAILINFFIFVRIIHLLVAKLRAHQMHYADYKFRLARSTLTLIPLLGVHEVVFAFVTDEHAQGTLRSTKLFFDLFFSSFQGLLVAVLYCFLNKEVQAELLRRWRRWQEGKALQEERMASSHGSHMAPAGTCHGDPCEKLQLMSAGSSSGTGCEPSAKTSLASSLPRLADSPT
T1 sequence (P47871 26-477): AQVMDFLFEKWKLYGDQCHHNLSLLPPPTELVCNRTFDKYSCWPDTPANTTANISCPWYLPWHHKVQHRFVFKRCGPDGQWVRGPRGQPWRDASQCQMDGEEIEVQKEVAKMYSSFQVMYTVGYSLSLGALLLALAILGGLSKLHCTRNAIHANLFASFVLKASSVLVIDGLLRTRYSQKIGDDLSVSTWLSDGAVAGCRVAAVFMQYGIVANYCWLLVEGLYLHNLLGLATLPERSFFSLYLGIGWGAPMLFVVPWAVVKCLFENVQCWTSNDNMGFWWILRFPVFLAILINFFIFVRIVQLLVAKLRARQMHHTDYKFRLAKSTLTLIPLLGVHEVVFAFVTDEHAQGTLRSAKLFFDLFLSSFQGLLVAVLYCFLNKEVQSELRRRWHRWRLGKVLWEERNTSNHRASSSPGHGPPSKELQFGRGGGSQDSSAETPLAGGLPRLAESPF

SMILES	EC50 [1]	EC50 [2]	Ratio GLP-1/Glucagon [3]	MRT [4]	clearance [4]	half-life [4]
CC[C@H](C)[C@H](NC(=O)[C@H](Cc1ccccc1)NC(=O)[C@H](CC(=O)O)NC(=O)[C@H](CCCCN)NC(=O)[C@H](C)NC(=O)[C@H](CCCNC(=N)N)NC(=O)[C@H](CCCNC(=N)N)NC(=O)[C@H](CCC(=O)O)NC(=O)[C@H](CC(=O)O)NC(=O)[C@H](CC(C)C)NC(=O)[C@H](Cc1ccc(O)cc1)NC(=O)[C@H](CCCCN)NC(=O)[C@H](CO)NC(=O)[C@H](Cc1ccc(O)cc1)NC(=O)[C@H](CC(=O)O)NC(=O)[C@H](CO)NC(=O)[C@@H](NC(=O)[C@H](Cc1ccccc1)NC(=O)[C@@H](NC(=O)CNC(=O)[C@H](CCC(N)=O)NC(=O)C1(NC(=O)[C@@H](N)Cc2c[nH]cn2)CCC1)[C@@H](C)O)[C@@H](C)O)C(=O)N[C@@H](CCCCNC(=O)CNC(=O)CNC(=O)[C@H](CO)NC(=O)CNC(=O)[C@H](CO)NC(=O)CNC(=O)CC[C@H](NC(=O)CCCCCCCCCCCCCCCCC(=O)O)C(=O)O)C(=O)N[C@@H](Cc1c[nH]c2ccccc12)C(=O)N[C@@H](CC(C)C)C(=O)N[C@@H](CCC(=O)O)C(=O)N[C@@H](CO)C(=O)N[C@@H](C)C(N)=O [Compound 14]	0.18 nM	0.19 nM	3.33	–	–	–
CC[C@H](C)[C@H](NC(=O)[C@H](Cc1ccccc1)NC(=O)[C@H](CC(=O)O)NC(=O)[C@H](CCCCN)NC(=O)[C@H](C)NC(=O)[C@H](C)NC(=O)[C@H](CCCNC(=N)N)NC(=O)[C@H](CCCCNC(=O)COCCOCCNC(=O)COCCOCCNC(=O)CC[C@H](NC(=O)CCCCCCCCCCCCCCCCC(=O)O)C(=O)O)NC(=O)[C@H](CC(=O)O)NC(=O)[C@H](CC(C)C)NC(=O)[C@H](Cc1ccc(O)cc1)NC(=O)[C@H](CCCCN)NC(=O)[C@H](CO)NC(=O)[C@H](Cc1ccc(O)cc1)NC(=O)[C@H](CC(=O)O)NC(=O)[C@H](CO)NC(=O)[C@@H](NC(=O)[C@H](Cc1ccccc1)NC(=O)[C@@H](NC(=O)CNC(=O)[C@H](CCC(N)=O)NC(=O)C(C)(C)NC(=O)[C@@H](N)Cc1c[nH]cn1)[C@@H](C)O)[C@@H](C)O)C(=O)N[C@@H](CCC(=O)O)C(=O)N[C@@H](Cc1c[nH]c2ccccc12)C(=O)N[C@@H](CC(C)C)C(=O)N[C@@H](CCC(=O)O)C(=O)N[C@@H](CO)C(=O)N[C@@H](C)C(N)=O [Compound 2, H-H-Aib-QGTFTSDYSKYLD-K([17-carboxy-heptadecanoyl]-isoGlu-Peg3-Peg3)-RAAKDFIEWLESA-NH2] (H-H[Aib]QGTFTSDYSKYLDK([AEEA-AEEA-γGlu-C18 diacid])RAAKDFIEWLESA-NH2)	–	0.11 nM	13.54	13.6 h	0.11 mL/min/kg	9.1 h
CC[C@H](C)[C@H](NC(=O)[C@H](Cc1ccccc1)NC(=O)[C@H](CC(=O)O)NC(=O)[C@H](CCCCN)NC(=O)[C@H](C)NC(=O)[C@H](CCCNC(=N)N)NC(=O)[C@H](CCCNC(=N)N)NC(=O)[C@H](CCC(=O)O)NC(=O)[C@H](CC(=O)O)NC(=O)[C@H](CC(C)C)NC(=O)[C@H](Cc1ccc(O)cc1)NC(=O)[C@H](CCCCN)NC(=O)[C@H](CO)NC(=O)[C@H](Cc1ccc(O)cc1)NC(=O)[C@H](CC(=O)O)NC(=O)[C@H](CO)NC(=O)[C@@H](NC(=O)[C@H](Cc1ccccc1)NC(=O)[C@@H](NC(=O)CNC(=O)[C@H](CCC(N)=O)NC(=O)C1(NC(=O)[C@@H](N)Cc2c[nH]cn2)CCC1)[C@@H](C)O)[C@@H](C)O)C(=O)N[C@@H](CCC(=O)O)C(=O)N[C@@H](Cc1c[nH]c2ccccc12)C(=O)N[C@@H](CC(C)C)C(=O)N[C@@H](CCC(=O)O)C(=O)N[C@@H](CCCCNC(=O)CNC(=O)CNC(=O)[C@H](CO)NC(=O)CNC(=O)[C@H](CO)NC(=O)CNC(=O)CC[C@H](NC(=O)CCCCCCCCCCCCCCCCC(=O)O)C(=O)O)C(=O)N[C@@H](C)C(N)=O [Compound 16]	–	0.19 nM	3.31	–	–	–
CC[C@H](C)[C@H](NC(=O)[C@H](Cc1ccccc1)NC(=O)[C@H](CC(=O)O)NC(=O)[C@H](CCCCN)NC(=O)[C@H](C)NC(=O)[C@H](CCCNC(=N)N)NC(=O)[C@H](CCCCNC(=O)CC[C@H](NC(=O)CCCCCCCCCCCCCCCCC(=O)O)C(=O)O)NC(=O)[C@H](CCC(=O)O)NC(=O)[C@H](CC(=O)O)NC(=O)[C@H](CC(C)C)NC(=O)[C@H](Cc1ccc(O)cc1)NC(=O)[C@H](CCCCN)NC(=O)[C@H](CO)NC(=O)[C@H](Cc1ccc(O)cc1)NC(=O)[C@H](CC(=O)O)NC(=O)[C@H](CO)NC(=O)[C@@H](NC(=O)[C@H](Cc1ccccc1)NC(=O)[C@@H](NC(=O)CNC(=O)[C@H](CCC(N)=O)NC(=O)C1(NC(=O)[C@@H](N)Cc2c[nH]cn2)CCC1)[C@@H](C)O)[C@@H](C)O)C(=O)N[C@@H](CCC(=O)O)C(=O)N[C@@H](Cc1c[nH]c2ccccc12)C(=O)N[C@@H](CC(C)C)C(=O)N[C@@H](CCC(=O)O)C(=O)N[C@@H](CO)C(=O)N[C@@H](C)C(N)=O [Compound 12, H-H-Ac4c-QGTFTSDYSKYLDE-K([17-carboxy-heptadecanoyl]-isoGlu)-RAKDFIEWLESA-NH2] (H-H[Ac4c]QGTFTSDYSKYLDEK([γGlu-C18 diacid])RAKDFIEWLESA-NH2)	0.07 nM	–	6.86	–	–	–
